Reference: ChEMBL document CHEMBL1201862, “PubChem BioAssay data set” (2004)
Calls of active or inactive are those of the source.

How the values were obtained:
Cytochrome P450 3A4 = Cytochrome P450 3A4 (Homo sapiens, UniProt P08684);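 note: CYP3A4 tested as one member of a cytochrome P450 panel screen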
[1] = target: Voltage-gated inwardly rectifying potassium channel KCNH2 (Homo sapiens, UniProt Q12809); conditions: Potency;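 note: confirmatory quantitative high-throughput screen measuring inhibition of hERG channel activity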
[2] = Luminescence Cell-Based Dose Retest to Confirm Inhibitors of Cancer Stem Cells. [Related pubchem assays (depositor defined):AID2717, AID2721]; assay type: functional; conditions: Homo sapiens
[3] = cytotoxicity in HMLE control line with eGFP shRNA, dose response, counter-screen for HMLE_sh_ECad selective toxicity project, cell-based, HMLE_sh_eGFP, luminescence (AID 463074); assay type: functional, Homo sapiens;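 note: HMLE human mammary epithelial cells expressing control shRNA against eGFP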
[4] = target: Dual specificity protein kinase CLK1 (Homo sapiens, UniProt P49759); experiment: CLK1 kinase inhibitors, off-target check, dose response, selectivity assay for Dyrk1A inhibitor project, biochemical, cherry-picked samples (AID 588811)
[5] = target: Dual specificity tyrosine-phosphorylation-regulated kinase 1A (Rattus norvegicus, UniProt Q63470); assay type: biochemical, Homo sapiens
[6] = target: Luciferin 4-monooxygenase (Photinus pyralis, UniProt P08659); experiment: firefly luciferase enzyme inhibitors, dose response, biochemical, luminescence (AID 1891)
[7] = Luminescence Cell-Based Dose Confirmation HTS to Identify Inhibitors of Platelet Dense Granule Release. [Related pubchem assays: 1663 (Primary HTS), 1678 (Summary of Project)]; assay type: functional
Nonstructural protein 1 = Nonstructural protein 1 (Influenza A virus, UniProt Q194T2); assay type: functional, Influenza A virus (A/California/07/2009(H1N1))
MDCK [8] = experiment: antiviral activity against H1N1 influenza, dose response, cell-based, strain KY180 (AID 540254); assay type: functional; conditions: Canis lupus familiaris
MDCK [9] = experiment: MDCK cell cytotoxicity, dose response, cytotoxicity control (AID 540296); assay type: functional; conditions: Canis lupus familiaris
[10] = target: T1, Short transient receptor potential channel 4 (Mus musculus, UniProt Q9QUQ5); experiment: mouse TRPC4 channel activators, dose response, cell-based, HEK293 TRPC4/mu-opioid, Fluo-4 calcium (AID 434937); assay type: functional
T1 sequence (Q9QUQ5 whole entry): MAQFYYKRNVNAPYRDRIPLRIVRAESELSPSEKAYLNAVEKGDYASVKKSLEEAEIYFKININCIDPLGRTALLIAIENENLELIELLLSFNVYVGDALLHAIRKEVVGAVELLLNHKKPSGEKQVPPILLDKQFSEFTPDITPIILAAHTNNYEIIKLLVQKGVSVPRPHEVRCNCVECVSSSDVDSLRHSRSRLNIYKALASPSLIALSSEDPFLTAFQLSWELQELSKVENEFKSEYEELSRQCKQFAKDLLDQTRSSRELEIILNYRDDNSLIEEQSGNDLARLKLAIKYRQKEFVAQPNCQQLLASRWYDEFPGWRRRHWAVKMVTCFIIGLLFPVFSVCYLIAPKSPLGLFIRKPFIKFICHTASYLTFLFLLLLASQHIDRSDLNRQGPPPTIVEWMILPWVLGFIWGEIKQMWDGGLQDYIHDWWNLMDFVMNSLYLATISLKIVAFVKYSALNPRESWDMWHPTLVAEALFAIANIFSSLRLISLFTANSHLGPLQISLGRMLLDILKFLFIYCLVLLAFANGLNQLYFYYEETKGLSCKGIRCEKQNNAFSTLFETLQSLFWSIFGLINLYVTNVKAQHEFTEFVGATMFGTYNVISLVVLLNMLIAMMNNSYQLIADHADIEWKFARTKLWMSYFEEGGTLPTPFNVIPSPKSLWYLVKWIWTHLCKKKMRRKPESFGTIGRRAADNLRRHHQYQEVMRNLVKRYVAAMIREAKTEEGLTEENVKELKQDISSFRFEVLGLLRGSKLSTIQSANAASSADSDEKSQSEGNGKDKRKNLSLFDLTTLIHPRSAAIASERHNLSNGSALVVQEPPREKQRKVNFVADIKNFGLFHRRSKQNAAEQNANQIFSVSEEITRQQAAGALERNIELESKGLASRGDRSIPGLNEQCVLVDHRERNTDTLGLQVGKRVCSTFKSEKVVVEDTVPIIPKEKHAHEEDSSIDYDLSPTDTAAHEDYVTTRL

[11] = target: Delta-type opioid receptor (Homo sapiens, UniProt P41143); experiment: Counterscreen for agonists of heterodimerization of the mu 1 (OPRM1) and delta 1 (OPRD1) opioid receptors: Luminescence-based cell-based high throughput dose response assay to identify agonists of OPRD1 homodimerization. [Related pubchem assays (depositor defined):AID504326, AID504355, AID504692, AID504904, AID504905]; assay type: functional
Mu-type opioid receptor = Mu-type opioid receptor (Homo sapiens, UniProt P35372); experiment: Counterscreen for agonists of heterodimerization of the mu 1 (OPRM1) and delta 1 (OPRD1) opioid receptors: Luminescence-based cell-based high throughput dose response assay to identify agonists of OPRM1 homodimerization.; assay type: functional;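 note: U2OS cells expressing OPRM1 and beta-arrestin as split beta-galactosidase partners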
[12] = target: 5-hydroxytryptamine receptor 5A (Homo sapiens, UniProt P47898); experiment: Counterscreen for agonists of OPRM1-OPRD1 heterodimerization: luminescence-based cell-based high throughput dose response assay to identify agonists of 5-hydroxytryptamine (serotonin) 5A receptor (HTR5A). [Related pubchem assays (depositor defined):AID504326, AID504355, AID504692, AID504904, AID504905]; assay type: functional
[13] = target: T1, Short transient receptor potential channel 4; experiment: mouse TRPC4 channel inhibitors, dose response, cell-based, HEK293 TRPC4/mu-opioid, Fluo-4 calcium (AID 434942); assay type: functional;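 note: potency of inhibitors blocking the TRPC4 calcium response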
[14] = target: FAD-linked sulfhydryl oxidase ALR (Homo sapiens, UniProt P55789); experiment: inhibitors of human ALR sulfhydryl oxidase, dose response, biochemical, H2O2 detection, luminescence, cherry-pick (AID 493248)
[15] = target: T1, Short transient receptor potential channel 4; experiment: SAR Analysis for the identification of selective inhibits of the transient receptor potential cation channel C4 (TRPC4): Automated Electrophysiology. [Related pubchem assays (depositor defined):AID2256]; assay type: functional
Cytochrome P450 1A2 = target: T2, Cytochrome P450 1A2 (Homo sapiens, UniProt P05177);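 note: PubChem cytochrome P450 panel assay, CYP1A2 panel member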
T2 sequence (P05177 whole entry): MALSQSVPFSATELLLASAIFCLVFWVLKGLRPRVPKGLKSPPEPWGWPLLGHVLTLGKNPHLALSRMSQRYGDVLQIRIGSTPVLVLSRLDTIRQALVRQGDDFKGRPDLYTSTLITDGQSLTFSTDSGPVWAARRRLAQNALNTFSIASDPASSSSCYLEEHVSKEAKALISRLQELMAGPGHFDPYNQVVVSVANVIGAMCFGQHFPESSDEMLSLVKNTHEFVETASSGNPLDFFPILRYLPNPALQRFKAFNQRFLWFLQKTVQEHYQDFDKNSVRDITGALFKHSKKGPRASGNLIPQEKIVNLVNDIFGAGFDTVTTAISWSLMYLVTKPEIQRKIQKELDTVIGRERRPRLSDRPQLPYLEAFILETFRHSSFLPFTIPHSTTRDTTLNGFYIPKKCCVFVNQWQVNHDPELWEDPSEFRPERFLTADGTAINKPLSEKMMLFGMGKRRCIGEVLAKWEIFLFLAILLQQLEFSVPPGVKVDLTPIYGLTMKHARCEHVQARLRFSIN

Cytochrome P450 2C9 = Cytochrome P450 2C9 (Homo sapiens, UniProt P11712)
HEK293 [16] = experiment: cells; assay type: functional, cell-based; conditions: Homo sapiens
[17] = target: T3, Nuclear receptor subfamily 0 group B member 1 (Homo sapiens, UniProt P51843); experiment: Luminescence-based cell-based high throughput dose response assay for inhibitors of the orphan nuclear receptor subfamily 0, group B, member 1 (DAX1; NR0B1). [Related pubchem assays (depositor defined):AID504766, AID504790]; assay type: functional
T3 sequence (P51843 whole entry): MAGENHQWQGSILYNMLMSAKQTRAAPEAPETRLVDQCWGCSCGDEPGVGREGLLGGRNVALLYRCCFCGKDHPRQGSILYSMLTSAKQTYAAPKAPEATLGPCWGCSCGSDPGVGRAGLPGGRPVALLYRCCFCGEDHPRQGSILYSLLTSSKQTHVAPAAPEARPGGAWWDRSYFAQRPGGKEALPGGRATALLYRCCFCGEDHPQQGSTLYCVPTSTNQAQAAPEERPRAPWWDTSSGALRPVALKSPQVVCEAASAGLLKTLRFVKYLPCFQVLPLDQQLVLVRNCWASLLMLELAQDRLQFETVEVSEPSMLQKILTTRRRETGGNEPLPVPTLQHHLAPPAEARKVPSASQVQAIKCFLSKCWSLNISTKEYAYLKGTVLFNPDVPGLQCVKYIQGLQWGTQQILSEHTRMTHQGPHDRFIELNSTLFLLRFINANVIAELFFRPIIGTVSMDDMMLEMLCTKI

[18] = target: DNA dC->dU-editing enzyme APOBEC-3A (Homo sapiens, UniProt P31941); experiment: Dose Response confirmation of small molecule APOBEC3A DNA Deaminase Inhibitors via a fluorescence-based single-stranded DNA deaminase assay. [Related pubchem assays (depositor defined):AID493011, AID493024]; assay type: functional
[19] = target: DNA dC->dU-editing enzyme APOBEC-3G (Homo sapiens, UniProt Q9HC16); assay type: functional;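 note: Dose-response counterscreen measuring inhibition of APOBEC3G DNA deaminase activity, run while confirming APOBEC3A inhibitors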
[20] = target: T4, Microphthalmia-associated transcription factor (Homo sapiens, UniProt O75030); experiment: TRPM1 promoter luciferase signal decrease, dose response, MITF inhibitor project, cell-based, SK-MEL-5, cherry-picked, set 3 (AID 493073); assay type: functional
T4 sequence (O75030 whole entry): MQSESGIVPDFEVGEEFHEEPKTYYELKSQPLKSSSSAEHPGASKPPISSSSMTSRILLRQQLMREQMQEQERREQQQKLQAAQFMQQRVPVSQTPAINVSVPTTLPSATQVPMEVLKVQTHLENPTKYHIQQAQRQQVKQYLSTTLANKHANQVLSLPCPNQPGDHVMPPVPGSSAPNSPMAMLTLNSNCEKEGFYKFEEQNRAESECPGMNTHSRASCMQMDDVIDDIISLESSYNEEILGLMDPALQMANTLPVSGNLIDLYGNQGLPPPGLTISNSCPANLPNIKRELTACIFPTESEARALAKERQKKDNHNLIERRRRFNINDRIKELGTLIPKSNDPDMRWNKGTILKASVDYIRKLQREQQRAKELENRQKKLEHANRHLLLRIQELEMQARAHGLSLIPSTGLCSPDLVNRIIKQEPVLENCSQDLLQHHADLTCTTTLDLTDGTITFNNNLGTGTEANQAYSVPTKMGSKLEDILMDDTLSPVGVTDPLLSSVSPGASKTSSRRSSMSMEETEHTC

A-375 = experiment: A375 melanoma cell viability reduction, dose response, counter-screen for MITF modulator project, cherry-pick samples, set 2 (AID 540335); assay type: functional, cell-based; conditions: Homo sapiens
Candida albicans = experiment: growth inhibition of resistant C. albicans, dose response, CaCi-8 strain, fluconazole, dry powder, set 4 (AID 488950); assay type: functional, organism-based
Jurkat = experiment: SAR Analysis of small molecule inhibitors of […] specific antigen receptor-induced NF-kB activation in a Jurkat cell line using a luminescence assay - Set 3. [Related pubchem assays (depositor defined):AID435022, AID435025, AID465]; assay type: functional, cell-based; conditions: Homo sapiens
HEK293 [21] = experiment: SAR Analysis of small molecule inhibitors of B-cell specific antigen receptor-induced NF-kB activation in a HEK-293T cell line using a luminescence assay - Set 2. [Related pubchem assays (depositor defined):AID435022, AID435025, AID489021]; assay type: functional, cell-based; conditions: Homo sapiens
HEK293 [22] = experiment: cytotoxicity in HEK293T NF-kB-Luc cells, SAR follow-up, cytotoxicity control for NF-kB activator project, cell-based, resazurin fluorescence (AID 493251); assay type: functional; conditions: Homo sapiens
CAAX prenyl protease 2 = CAAX prenyl protease 2 (Homo sapiens, UniProt Q9Y256); experiment: human Rce1 protease inhibitors, dose response, biochemical, yeast membranes, quenched-peptide fluorescence, cherry-pick (AID 588849)
Vero = Vero cell cytotoxicity, cytotoxicity control for flavivirus capping enzyme inhibitors (AID 588742); assay type: functional; conditions: Chlorocebus sabaeus
Genome polyprotein = Genome polyprotein (dengue virus type 2, UniProt P29990); experiment: Dengue-2 NS5 methyltransferase inhibitors, primary screen, biochemical, confirmation dose response (AID 588689); assay type: functional
Sequence of Genome polyprotein (P29990 2492-3391 limits assumed): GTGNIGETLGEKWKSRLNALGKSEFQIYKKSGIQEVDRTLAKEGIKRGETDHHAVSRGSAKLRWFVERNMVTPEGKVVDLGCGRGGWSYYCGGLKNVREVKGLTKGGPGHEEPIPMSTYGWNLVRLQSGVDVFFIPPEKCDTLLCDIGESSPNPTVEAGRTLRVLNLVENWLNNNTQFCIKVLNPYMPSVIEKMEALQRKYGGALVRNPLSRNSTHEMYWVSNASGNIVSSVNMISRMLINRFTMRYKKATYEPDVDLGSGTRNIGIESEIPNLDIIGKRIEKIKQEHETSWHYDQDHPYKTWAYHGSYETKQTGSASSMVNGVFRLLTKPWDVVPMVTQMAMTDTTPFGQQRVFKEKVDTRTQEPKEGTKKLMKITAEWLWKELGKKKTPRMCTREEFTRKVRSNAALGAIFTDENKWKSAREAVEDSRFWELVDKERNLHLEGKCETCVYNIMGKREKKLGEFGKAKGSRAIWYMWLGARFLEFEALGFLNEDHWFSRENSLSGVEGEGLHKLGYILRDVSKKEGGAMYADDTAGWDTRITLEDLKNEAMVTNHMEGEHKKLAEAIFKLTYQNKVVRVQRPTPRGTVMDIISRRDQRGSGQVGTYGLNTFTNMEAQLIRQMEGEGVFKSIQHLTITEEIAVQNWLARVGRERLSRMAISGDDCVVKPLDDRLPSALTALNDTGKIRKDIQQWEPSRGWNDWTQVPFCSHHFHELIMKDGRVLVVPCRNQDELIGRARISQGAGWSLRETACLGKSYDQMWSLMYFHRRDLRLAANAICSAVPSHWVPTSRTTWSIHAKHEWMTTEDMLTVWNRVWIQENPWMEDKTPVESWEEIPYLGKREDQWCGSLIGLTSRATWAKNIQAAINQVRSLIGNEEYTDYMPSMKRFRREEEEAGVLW

Sequence of Cytochrome P450 2C9 (P11712 whole entry): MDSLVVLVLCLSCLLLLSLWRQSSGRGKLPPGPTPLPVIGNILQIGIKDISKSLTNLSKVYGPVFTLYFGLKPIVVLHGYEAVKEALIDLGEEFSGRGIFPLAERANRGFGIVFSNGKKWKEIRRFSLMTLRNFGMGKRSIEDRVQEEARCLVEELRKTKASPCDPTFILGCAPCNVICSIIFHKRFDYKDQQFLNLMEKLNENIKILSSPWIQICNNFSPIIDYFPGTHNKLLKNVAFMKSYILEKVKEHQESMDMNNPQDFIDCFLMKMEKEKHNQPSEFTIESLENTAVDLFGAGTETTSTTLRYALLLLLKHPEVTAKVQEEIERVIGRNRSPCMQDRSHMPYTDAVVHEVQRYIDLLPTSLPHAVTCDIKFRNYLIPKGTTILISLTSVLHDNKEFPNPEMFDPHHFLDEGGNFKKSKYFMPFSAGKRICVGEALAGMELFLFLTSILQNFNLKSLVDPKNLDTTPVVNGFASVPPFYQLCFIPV
Sequence of CAAX prenyl protease 2 (Q9Y256 whole entry): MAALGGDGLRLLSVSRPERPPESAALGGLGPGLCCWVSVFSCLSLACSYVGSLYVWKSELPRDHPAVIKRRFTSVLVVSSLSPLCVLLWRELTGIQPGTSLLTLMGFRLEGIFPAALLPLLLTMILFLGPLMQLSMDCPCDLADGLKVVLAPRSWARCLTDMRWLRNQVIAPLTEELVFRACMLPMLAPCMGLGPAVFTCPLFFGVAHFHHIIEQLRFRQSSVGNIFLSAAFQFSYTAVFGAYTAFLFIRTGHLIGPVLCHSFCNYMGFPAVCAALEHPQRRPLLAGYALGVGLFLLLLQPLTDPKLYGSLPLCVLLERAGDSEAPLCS
Sequence of DNA dC->dU-editing enzyme APOBEC-3G (Q9HC16 whole entry): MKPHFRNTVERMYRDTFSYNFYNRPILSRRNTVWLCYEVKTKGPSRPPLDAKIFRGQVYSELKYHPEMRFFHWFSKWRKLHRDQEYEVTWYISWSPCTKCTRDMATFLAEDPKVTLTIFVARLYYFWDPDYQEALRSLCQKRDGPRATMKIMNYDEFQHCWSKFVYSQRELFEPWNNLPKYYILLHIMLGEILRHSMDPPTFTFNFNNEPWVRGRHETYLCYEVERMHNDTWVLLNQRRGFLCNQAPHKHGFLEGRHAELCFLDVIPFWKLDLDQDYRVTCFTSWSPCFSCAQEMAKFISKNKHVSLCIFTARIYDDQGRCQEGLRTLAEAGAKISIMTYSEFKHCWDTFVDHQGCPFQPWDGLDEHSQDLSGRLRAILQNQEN
Sequence of DNA dC->dU-editing enzyme APOBEC-3A (P31941 whole entry): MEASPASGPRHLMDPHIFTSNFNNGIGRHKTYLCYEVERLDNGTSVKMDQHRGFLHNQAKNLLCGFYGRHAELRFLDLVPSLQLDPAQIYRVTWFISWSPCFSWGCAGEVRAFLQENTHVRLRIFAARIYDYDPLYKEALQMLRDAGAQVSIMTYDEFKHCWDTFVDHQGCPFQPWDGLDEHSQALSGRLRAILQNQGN
Sequence of Dual specificity protein kinase CLK1 (P49759 whole entry): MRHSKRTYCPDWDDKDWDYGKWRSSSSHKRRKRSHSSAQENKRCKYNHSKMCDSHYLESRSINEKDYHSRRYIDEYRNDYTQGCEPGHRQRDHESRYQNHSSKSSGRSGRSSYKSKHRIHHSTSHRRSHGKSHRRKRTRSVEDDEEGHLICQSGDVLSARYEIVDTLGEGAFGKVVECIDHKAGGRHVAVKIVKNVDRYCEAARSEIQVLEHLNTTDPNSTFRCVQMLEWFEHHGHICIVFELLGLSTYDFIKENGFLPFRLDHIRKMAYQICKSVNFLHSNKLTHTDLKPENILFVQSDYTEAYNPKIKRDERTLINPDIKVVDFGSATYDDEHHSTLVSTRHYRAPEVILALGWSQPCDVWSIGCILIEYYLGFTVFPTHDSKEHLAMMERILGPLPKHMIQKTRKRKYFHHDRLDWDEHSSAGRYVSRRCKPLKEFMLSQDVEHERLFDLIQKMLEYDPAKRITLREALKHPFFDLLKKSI
Sequence of Voltage-gated inwardly rectifying potassium channel KCNH2 (Q12809 whole entry): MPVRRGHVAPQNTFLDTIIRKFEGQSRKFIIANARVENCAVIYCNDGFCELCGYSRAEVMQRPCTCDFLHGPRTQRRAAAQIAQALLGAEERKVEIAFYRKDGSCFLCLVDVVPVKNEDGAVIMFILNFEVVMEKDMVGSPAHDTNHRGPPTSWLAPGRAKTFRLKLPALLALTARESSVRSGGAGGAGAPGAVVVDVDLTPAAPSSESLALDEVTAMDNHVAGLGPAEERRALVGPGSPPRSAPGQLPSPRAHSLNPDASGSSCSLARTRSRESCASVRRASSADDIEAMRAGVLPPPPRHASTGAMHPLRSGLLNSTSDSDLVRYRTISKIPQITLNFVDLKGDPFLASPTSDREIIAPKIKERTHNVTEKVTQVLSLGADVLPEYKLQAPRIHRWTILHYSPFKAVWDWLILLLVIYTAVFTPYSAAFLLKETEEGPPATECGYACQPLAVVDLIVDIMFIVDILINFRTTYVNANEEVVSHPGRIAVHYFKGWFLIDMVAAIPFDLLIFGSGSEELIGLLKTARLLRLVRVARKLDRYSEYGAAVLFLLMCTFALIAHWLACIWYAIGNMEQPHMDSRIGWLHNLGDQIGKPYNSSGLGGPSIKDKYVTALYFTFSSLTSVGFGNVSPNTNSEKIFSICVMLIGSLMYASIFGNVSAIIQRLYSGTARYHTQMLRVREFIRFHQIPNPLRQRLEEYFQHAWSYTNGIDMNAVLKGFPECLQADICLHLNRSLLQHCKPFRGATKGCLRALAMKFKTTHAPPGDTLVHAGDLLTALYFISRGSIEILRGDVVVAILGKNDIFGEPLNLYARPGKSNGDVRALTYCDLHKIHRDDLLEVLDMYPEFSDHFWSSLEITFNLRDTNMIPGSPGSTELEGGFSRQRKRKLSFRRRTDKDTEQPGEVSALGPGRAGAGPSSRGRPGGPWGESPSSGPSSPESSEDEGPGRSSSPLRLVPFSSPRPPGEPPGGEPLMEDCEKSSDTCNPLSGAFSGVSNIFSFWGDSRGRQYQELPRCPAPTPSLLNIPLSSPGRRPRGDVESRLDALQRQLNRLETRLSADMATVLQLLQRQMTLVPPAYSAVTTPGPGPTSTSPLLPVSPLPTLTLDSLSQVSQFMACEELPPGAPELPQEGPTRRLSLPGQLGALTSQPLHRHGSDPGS
Sequence of Cytochrome P450 3A4 (P08684 whole entry): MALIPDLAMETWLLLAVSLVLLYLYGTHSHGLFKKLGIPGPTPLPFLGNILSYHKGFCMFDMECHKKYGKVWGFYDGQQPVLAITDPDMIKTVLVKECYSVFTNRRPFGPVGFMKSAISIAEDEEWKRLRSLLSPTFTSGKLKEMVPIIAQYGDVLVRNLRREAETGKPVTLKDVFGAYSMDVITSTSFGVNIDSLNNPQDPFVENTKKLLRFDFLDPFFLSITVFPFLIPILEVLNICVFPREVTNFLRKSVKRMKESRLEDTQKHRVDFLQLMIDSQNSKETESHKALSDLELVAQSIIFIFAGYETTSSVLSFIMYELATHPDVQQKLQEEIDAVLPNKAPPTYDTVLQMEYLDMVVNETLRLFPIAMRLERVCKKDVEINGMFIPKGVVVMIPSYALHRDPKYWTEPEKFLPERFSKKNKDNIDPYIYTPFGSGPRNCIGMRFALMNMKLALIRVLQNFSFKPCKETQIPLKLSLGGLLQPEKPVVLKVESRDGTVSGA
Sequence of 5-hydroxytryptamine receptor 5A (P47898 whole entry): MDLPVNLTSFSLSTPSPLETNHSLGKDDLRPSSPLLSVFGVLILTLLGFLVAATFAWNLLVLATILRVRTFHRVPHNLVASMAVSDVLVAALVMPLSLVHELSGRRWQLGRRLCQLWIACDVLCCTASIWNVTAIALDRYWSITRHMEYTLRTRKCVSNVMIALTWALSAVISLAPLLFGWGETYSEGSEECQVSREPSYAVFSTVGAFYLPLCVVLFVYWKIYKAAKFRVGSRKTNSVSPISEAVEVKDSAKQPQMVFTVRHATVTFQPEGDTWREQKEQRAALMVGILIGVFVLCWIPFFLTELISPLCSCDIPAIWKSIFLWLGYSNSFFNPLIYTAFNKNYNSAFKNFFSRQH

## CCn1c(=O)c2[nH]c(-c3ccccc3)nc2n(CC)c1=O
Cytochrome P450 3A4
  AC50: 3.98 µM (inconclusive)
[1]
  AC50: 35.5 µM (inconclusive)

## O=C1c2ccccc2C(=O)N1CC#CCN1CCN(C(c2ccccc2)c2ccccc2)CC1
[2]
  AC50: 2.06 µM (active)
[3]
  AC50: 25.2 µM (active)

## COc1ccc(C(=O)c2sc(Nc3ccccc3F)nc2N)cc1
[4]
  AC50: 3.41 µM (active)
[5]
  AC50: 1.63 µM (active)

## COc1ccc(N2CCN(CCCN)CC2)cc1
[6]
  EC50: > 112 µM (not active)
[7]
  EC50: > 112 µM (not active)
Nonstructural protein 1
  IC50: 39.8 µM (active)
MDCK [8]
  IC50: 23 µM (active)
MDCK [9]
  CC50: > 40 µM (active)

## CC(=O)Nc1ccc(CN2CCCC(C(=O)c3cccc(C(F)(F)F)c3)C2)cc1 (stereo not drawn)
[10]
  EC50: 1.68 µM (active)
[11]
  EC50: 39.4 µM (inactive)
Mu-type opioid receptor
  EC50: > 92.5 µM (inactive)
[12]
  EC50: > 92.5 µM (inactive)

## Cn1c(-c2ccc(F)cc2)cnc1NCc1ccc(F)cc1
[13]
  EC50: 0.749 µM (active)
[14]
  AC50: 4.7 µM (active)
[15]
  IC50: 4.28 µM (active)
Cytochrome P450 1A2
  AC50: 8.91 µM (inconclusive)
Cytochrome P450 2C9
  AC50: 20 µM (inconclusive)

## CC(C=NNc1ccc([N+](=O)[O-])cn1)=Cc1ccccc1
HEK293 [16]
  IC50: > 67.5 µM (inactive)
[17]
  IC50: > 67.5 µM (inactive)

## CCN1CCN(c2ccc(S(=O)(=O)N3CCOCC3)cc2NC(=O)/C=C/c2ccc([N+](=O)[O-])cc2)CC1
[18]
  IC50: 8.67 µM (active)
[19]
  IC50: 7.56 µM (active)
[20]
  AC50: 8.13 µM (active)
A-375
  AC50: 28.6 µM (active)

## O=C(c1ccc(Cl)cc1)N1CCN(c2cccc(C(F)(F)F)n2)CC1
Candida albicans
  AC50: 172 µM (active)

## CCOc1ccc(-c2nc(CSCC(=O)NC(C)C)c(C)o2)cc1
Jurkat
  IC50: > 80 µM (inactive)
HEK293 [21]
  IC50: 61.7 µM (inactive)
HEK293 [22]
  IC50: > 80 µM (inactive)

## Cc1c(CCC(=O)O)c(=O)oc2cc(OCc3cccc(F)c3)ccc12
CAAX prenyl protease 2
  AC50: 12.1 µM (active)

## O=S(=O)(N=C1C=CC(=NS(=O)(=O)c2ccccc2)c2ccccc21)c1ccccc1
Vero
  CC50: 34.1 µM (active)
Genome polyprotein
  IC50: 19.1 µM (active)
